From EP0808833B1, “Vitamin D3 analogs” (F. HOFFMANN-LA ROCHE AG, priority 1996, dated 1997)
Read-outs that look alike come from different tables or passages of the source. Marks after values point to notes of the source that are not given here.

Assays:
[1] = Calcium tolerance test in mice; assay type: in vivo; conditions: highest tolerated dose = dose resulting in zero weight gain, daily subcutaneous administration for 4 consecutive days; for MTD: mouse, in vivo, sc, read-out: HTD
Text: Calcium tolerance test in mice
Profound changes in calcium homeostasis strongly affect the weight development of mice. Mice (25-30 g body weight) received daily subcutaneous administrations of the compound for 4 consecutive days. Body weight was registered just before and at the end of a […] treatment period. The "highest tolerated dose" (HTD) is the dose which results in zero weight gain during this treatment period.

[2] = system: sebaceous cells; test: Inhibition of human sebocyte proliferation in vitro; assay type: cell-based; conditions: amount of compound necessary to inhibit proliferation of sebaceous cells by 50% as compared to a vehicle-treated culture, tested at 10^-6, 10^-7 and 10^-8 M, read-out: ED50 (the source's name)
Method: Inhibition of Human Sebocyte Proliferation In Vitro
The cells were cultured in Iscove's medium containing 10% fetal calf serum and 4 µg/ml dexamethasone on a layer of growth-arrested 3T3 mouse fibroblasts. Cells were plated in medium without the test compound and then given test compound in fresh medium 24-48 hours after the initial plating. The cultures were given fresh medium, containing the test compound, every 48 hours. On the day of harvesting, the cultures were rinsed with 0.03% EDTA (ethylenediamine tetroacetic acid) in PBS (phosphate-buffered saline), to remove only the 3T3 fibroblasts, followed by incubation in 0.05% trypsin/0.03% EDTA. The cells were suspended, mixed vigorously to prepare a single cell suspension and counted in a hemocytometer.
Stock solutions of compounds were made up as 10^-2 M solutions in degassed 100% ethanol and stored at -20°C in the dark. During experimental use, the solutions, which have been aliquoted, were brought to room temperature and used by diluting directly into complete medium to the appropriate concentration.

[3] = system: HaCaT cells; test: Inhibition of keratinocyte proliferation (3H-thymidine uptake, HaCaT); assay type: cell-based; conditions: Homo sapiens, 3H-thymidine incorporation after 6 days of culture in presence of the test compound
[4] = system: UVB-Induced Dermal Damage; test: Repair of UVB-induced dermal damage in the hairless mouse; assay type: in vivo, Hairless mice; conditions: treated three times per week after UVB irradiation
Method: Repair of UVB-Induced Dermal Damage in the Hairless Mouse by Compounds of Formula I Hairless mice (female, HRS/J strain, Jackson Labs, 5-7 weeks old at the start of the experiments) were housed in yellow light and irradiated three times per week with a bank of 8 Westinghouse Sunlamps (FS72T12 HO, peak irradiance at 313 nm) placed about 20 cm above the animals. UVB output was measured on an International Light Research Radiometer, model IL 1700, using a SEE240 detector. With this setup, the lamp output was approximately 3.5 mW/cm^2 and the time of exposure for 0.06 J/cm^2 was about 17 seconds; 1 MED is approximately 0.03 J/cm^2. The precise dose was delivered by a IL […] Phototherapy Exposure Control. Daily doses were 0.03 J/cm^2 for two weeks, 0.06 J/cm^2 for two weeks and 0.08 J/cm^2 thereafter, until a total dose of approximately 4 J/cm^2 was accumulated. To effect repair of the dermal damage, the UVB irradiation was discontinued and the animals were divided into groups of approximately eight and treated three times per week with various concentrations of the vitamin D analogs dissolved in ethanol. All dosing was done under yellow light. […] In these studies, since the width of the zone varies considerably, the area of the zone on a standard length of histological section is measured by image analysis. Compounds are tested at three doses and an approximate ED50 calculated.

[5] = system: HL-60 cells; test: HL-60 cell differentiation (NBT reduction); assay type: cell-based; conditions: Homo sapiens, HL-60, 72 h, concentration leading to 50% of maximal differentiation achieved with 100-1000 nM calcitriol, 3 days, read-out: ED50 (the source's name)
[6] = system: T47-D breast carcinoma cells; test: Antiproliferative activity in T47-D breast carcinoma cells (MTT); assay type: cell-based; conditions: Homo sapiens, T47D, 72 h

| Molecule | HTD [1] | EC50 [2] | also measured |
| --- | --- | --- | --- |
| 1,25-Dihydroxy-16,23Z-diene-26,27-hexafluoro-20-epi-19-norcholecalciferol | 3.0 µg/kg |  |  |
| C=C1/C(=C\C=C2/CCC[C@]3(C)C([C@@H](C)C/C=C/C(O)(C(F)(F)F)C(F)(F)F)=CC[C@@H]23)C[C@@H](O)C[C@@H]1O [1,25-Dihydroxy-16,23E-diene-26,27-hexafluoro-20-epi-cholecalciferol] |  |  | EC50 ([2]; Homo sapiens): < 10 nM; IC50 [3]: 0.7 nM; MTD [1]: 2.5 µg/kg; Repair Zone ([4]; Dose 0.1 µg, P < 0.001 vs vehicle control): 0.0282±0.0092*** mm^2; Repair Zone ([4]; Dose 0.5 µg, P < 0.05 vs vehicle control): 0.0102±0.0067* mm^2; EC50 [5]: 0.37 nM; IC50 [6]: 10 nM |
| C=C1C(=CC=C2CCCC3(C)C(C(C)C/C=C\C(O)(C(F)(F)F)C(F)(F)F)=CCC23)CC(O)CC1O (stereo not drawn) [1,25-Dihydroxy-16,23Z-diene-26,27-hexafluoro-20-epi-cholecalciferol] | 2.5 µg/kg |  |  |
| C=C1C(=CC=C2CCCC3(C)C(C(C)CCCC(C)(C)O)=CCC23)CC(O)CC1O (stereo not drawn) [1,25-Dihydroxy-16-ene-20-epi-cholecalciferol] | 30 µg/kg | < 1 nM |  |
| C=C1C(=CC=C2CCCC3(C)C(C(C)CC#CC(C)(C)O)=CCC23)CC(O)CC1O (stereo not drawn) [1,25-Dihydroxy-16-ene-23-yne-20-epi-cholecalciferol] | 100 µg/kg | 50 nM |  |
| C=C1/C(=C\C=C2/CCC[C@]3(C)C([C@@H](C)CC#CC(O)(C(F)(F)F)C(F)(F)F)=CC[C@@H]23)C[C@@H](O)C[C@@H]1O [1,25-Dihydroxy-16-ene-23-yne-26,27-hexafluoro-20-epi-cholecalciferol] | 6.0 µg/kg | < 10 nM |  |
| C=C1/C(=C\C=C2/CCC[C@]3(C)[C@@H]([C@H](C)CCCC(C)(C)O)CC[C@@H]23)C[C@@H](O)C[C@@H]1O [1,25-Dihydroxy-cholecalciferol, reference compound] |  |  | MTD [1]: 0.5 µg/kg |
| C=C1C(=CC=C2CCCC3(C)C(C(C)C/C=C\C(O)(C(F)(F)F)C(F)(F)F)=CCC23)CC(O)CC1F (stereo not drawn) [1α-Fluoro-25-hydroxy-16,23Z-diene-26,27-hexafluoro-20-epi-cholecalciferol] | 8.0 µg/kg |  |  |
